Tests used:
[1] = Toxicity in BALB/c mouse assessed as mouse death at 280 nM/body, iv measured after 24 hrs; assay type: organism-based; details: in vivo, 0.28 µM
CWR22R = experiment: Suppression of AR-V7 expression in human CWR22Rv1 cells expressing GFP measured after 3 days by FACS assay; assay type: functional, cell-based; details: 22Rv1, 72 h
LNCaP = experiment: Suppression of AR-V7 expression in human LNCAP cells expressing GFP; assay type: functional, cell-based
[2] = Toxicity in BALB/c mouse assessed as effect on weight loss at 280 nM/body, iv administered on day 2 and day 4; assay type: organism-based; details: in vivo, 0.28 µM
[3] = Toxicity in BALB/c mouse assessed as mouse death at 280 nM/body, iv administered on day 2 and day 4; assay type: organism-based; details: in vivo, 0.28 µM

| Structure (SMILES) | IC50 (CWR22R) [µM] | also measured |
| --- | --- | --- |
| CO[C@]1(C)C[C@@]2(CO2)[C@H](O)[C@@H](/C=C/C(C)=C/C[C@@H]2O[C@H](C)[C@H](NC(=O)/C=C\[C@H](C)OC(C)=O)C[C@@H]2C)O1 | 0.0006 | Activity [1]: Toxic |
| CC(=O)O[C@@H](C)/C=C\C(=O)N[C@@H]1C[C@H](C)[C@H](C/C=C(C)/C=C/[C@H]2OCC[C@]3(O[C@H]3C)[C@@H]2O)O[C@@H]1C | 0.187 | – |
| CC(=O)O[C@@H](C)/C=C\C(=O)N[C@@H]1C[C@H](C)[C@H](C/C=C(C)/C=C/[C@H]2O[C@H](c3ccccc3)C[C@@]3(CO3)[C@@H]2O)O[C@@H]1C | – | IC50 (LNCaP): 0.132 µM |
| CC(=O)O[C@@H](C)/C=C\C(=O)N[C@@H]1C[C@H](C)[C@H](C/C=C(C)/C=C/[C@H]2OCC[C@]3(O[C@@H]3C)[C@@H]2O)O[C@@H]1C | 0.202 | – |
| CC(=O)O[C@@H](C)/C=C\C(=O)N[C@@H]1C[C@H](C)[C@H](C/C=C(C)/C=C/[C@H]2OCC[C@@]3(CO3)[C@@H]2O)O[C@@H]1C | 0.0033 | Activity [2]: Non-Toxic; Activity [3]: Non-Toxic |

Reference: ChEMBL document CHEMBL4616712, “Design and Synthesis of 1,2-Deoxy-pyranose Derivatives of Spliceostatin A toward Prostate Cancer Treatment” (ACS Med Chem Lett, 2020)
